From PubChem BioAssay AID330 (DTP/NCI, 2004)
Values joined by “and” are separate entries in the source; they are usually repeats but may differ in a detail not shown here. Identical values can stand only once. Toxic doses and inconclusive results are not listed.

Test system: P388 leukemia ip, CD2F1 mice, survival T/C
Test: NCI In Vivo Anticancer Drug Screen. Data for tumor model P388 Leukemia (intraperitoneal) in CD2F1 (CDF1) mice
Conditions: endpoint: median survival time, higher = longer survival
Outline: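 Mice carrying the transplanted tumor received test compound or vehicle. Survival was recorded in each group, and the value is the treated-group measurement divided by that of the vehicle-treated control group.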

[1] = dose: 100.0 mg/kg/injection, schedule: Q01DX001 (ip), vehicle: saline with Tween-80
[2] = dose: 200.0 mg/kg/injection, schedule: Q01DX001 (ip), vehicle: saline with Tween-80
[3] = dose: 50.0 mg/kg/injection, schedule: Q01DX005 (ip), vehicle: Klucel (hydroxypropylcellulose) (HPC)
[4] = dose: 100.0 mg/kg/injection, schedule: Q01DX005 (ip), vehicle: Klucel (hydroxypropylcellulose) (HPC)
[5] = dose: 200.0 mg/kg/injection, schedule: Q01DX005 (ip), vehicle: Klucel (hydroxypropylcellulose) (HPC)
[6] = dose: 50.0 mg/kg/injection, schedule: Q01DX009 (ip), vehicle: saline with Tween-80
[7] = dose: 100.0 mg/kg/injection, schedule: Q01DX009 (ip), vehicle: saline with Tween-80
[8] = dose: 200.0 mg/kg/injection, schedule: Q01DX009 (ip), vehicle: saline with Tween-80
[9] = dose: 50.0 mg/kg/injection, schedule: Q01DX005 (ip), vehicle: saline with Tween-80
[10] = dose: 50.0 mg/kg/injection, schedule: Q01DX009 (ip), vehicle: saline
[11] = dose: 50.0 mg/kg/injection, schedule: Q04DX003 (ip), vehicle: saline

**Q.** Which results are given for C=C1C(O)C2(O)OCC34C(CC5C(C)=CC(=O)C(O)C5(C)C23)OC(=O)C(OC(=O)C/C=C/CCCCCCCC)C14 (stereo not given)?
**A.** T/C (dose: 2.0 mg/kg/injection, schedule: Q01DX005 (ip), vehicle: saline + alcohol): 151 % of control; T/C (dose: 4.0 mg/kg/injection, schedule: Q01DX005 (ip), vehicle: saline + alcohol): 151 % of control and 156 % of control; T/C (dose: 8.0 mg/kg/injection, schedule: Q01DX005 (ip), vehicle: saline + alcohol): 198 % of control; T/C (dose: 16.0 mg/kg/injection, schedule: Q01DX005 (ip), vehicle: saline + alcohol): 205 % of control

**Q.** What does the source list for NC(=NCc1ccccc1)N/N=C\c1ccnc2ccccc12?
**A.** T/C (dose: 15.0 mg/kg/injection, schedule: Q01DX005 (ip), vehicle: Klucel (hydroxypropylcellulose) (HPC)): 101 % of control; T/C (dose: 30.0 mg/kg/injection, schedule: Q01DX005 (ip), vehicle: Klucel (hydroxypropylcellulose) (HPC)): 97 % of control; T/C (dose: 60.0 mg/kg/injection, schedule: Q01DX005 (ip), vehicle: Klucel (hydroxypropylcellulose) (HPC)): 95 % of control and 97 % of control

**Q.** Cc1cc(O)c2c3c(c(=O)oc2c1)CP(=O)(c1ccccc1)CC3 (stereo not given) was tested. Which T/C [1] did it give?
**A.** Its T/C is 94 % of control.

**Q.** And the T/C [2]?
**A.** Its T/C is 91 % of control.

**Q.** What about the T/C (dose: 400.0 mg/kg/injection, schedule: Q01DX001 (ip), vehicle: saline with Tween-80) of the same compound?
**A.** Its T/C is 91 % of control.

**Q.** Which T/C [3] does the source give for CCOC(=O)OCC1=Nc2cccc3cccc(c23)N1 here?
**A.** The T/C was 100 % of control.

**Q.** And the T/C [4]?
**A.** Its T/C is 110 % of control.

**Q.** What about the T/C [5] of the same compound?
**A.** The T/C was 108 % of control.

**Q.** With CC(=O)NC(C(=O)O)C(C)(C)SN=O (stereo not given) as the compound, how does the T/C [6] read?
**A.** Its T/C is 93 % of control.

**Q.** And the T/C [7]?
**A.** The T/C was 98 % of control.

**Q.** And the T/C [8]?
**A.** Its T/C is 95 % of control.

**Q.** For COC(=O)C(C)n1c(C)csc1=S (stereo not given), which T/C [9] is on record?
**A.** Its T/C is 103 % of control.

**Q.** And the T/C (dose: 100.0 mg/kg/injection, schedule: Q01DX005 (ip), vehicle: saline with Tween-80)?
**A.** The T/C was 98 % of control.

**Q.** What does the source list for Cc1ccccc1OC(=O)Nc1ccc(C(=O)O)c(O)c1?
**A.** T/C [1]: 95 % of control; T/C [2]: 109 % of control

**Q.** Which results are given for COc1ccc(-c2n(O)c(C)c(C)[n+]2[O-])cc1?
**A.** T/C (dose: 12.5 mg/kg/injection, schedule: Q01DX009 (ip), vehicle: saline with Tween-80): 101 % of control; T/C (dose: 25.0 mg/kg/injection, schedule: Q01DX009 (ip), vehicle: saline with Tween-80): 100 % of control; T/C [6]: 102 % of control and 92 % of control

**Q.** Which results are given for c1ccc(CC23CCCCC2N3)cc1 (stereo not given)?
**A.** T/C (dose: 12.5 mg/kg/injection, schedule: Q01DX009 (ip), vehicle: saline): 95 % of control; T/C (dose: 12.5 mg/kg/injection, schedule: Q04DX003 (ip), vehicle: saline): 90 % of control; T/C (dose: 25.0 mg/kg/injection, schedule: Q01DX009 (ip), vehicle: saline): 113 % of control; T/C (dose: 25.0 mg/kg/injection, schedule: Q04DX003 (ip), vehicle: saline): 90 % of control; T/C [10]: 100 % of control; T/C [11]: 100 % of control

**Q.** Which T/C (dose: 50.0 mg/kg/injection, schedule: Q01DX009 (ip), vehicle: Klucel (hydroxypropylcellulose) (HPC)) does the source give for CCNSc1ccccc1 here?
**A.** The T/C was 106 % of control.

**Q.** What does the source list for O=C1C(Cl)=C(NC(CO)(CO)CO)C(=O)c2ccccc21?
**A.** T/C (dose: 25.0 mg/kg/injection, schedule: Q01DX001 (ip), vehicle: saline with Tween-80): 92 % of control; T/C (dose: 50.0 mg/kg/injection, schedule: Q01DX001 (ip), vehicle: saline with Tween-80): 93 % of control; T/C [1]: 101 % of control

**Q.** Which results are given for O=C(/C=C\c1ccc(O)c(O)c1)O[C@@H]1C[C@](O)(C(=O)O)C[C@@H](O)[C@H]1O?
**A.** T/C [11]: 100 % of control; T/C (dose: 100.0 mg/kg/injection, schedule: Q04DX003 (ip), vehicle: saline): 100 % of control; T/C (dose: 200.0 mg/kg/injection, schedule: Q04DX003 (ip), vehicle: saline): 105 % of control

**Q.** Which T/C [6] does the source give for CN(C)C1CCc2ccccc2C1OC(=O)c1ccccc1 (stereo not given) here?
**A.** Its T/C is 101 % of control.

**Q.** What about the T/C [7] of the same compound?
**A.** The T/C was 107 % of control.

**Q.** What does the source list for O=C1NC(=O)C2C3CCC(C12)C1C2C(=O)NC(=O)C2C31 (stereo not given)?
**A.** T/C (dose: 12.5 mg/kg/injection, schedule: Q01DX005 (ip), vehicle: saline with Tween-80): 91 % of control; T/C (dose: 25.0 mg/kg/injection, schedule: Q01DX005 (ip), vehicle: saline with Tween-80): 93 % of control; T/C [9]: 101 % of control and 91 % of control

**Q.** How did the T/C (dose: 50.0 mg/kg/injection, schedule: Q01DX005 (ip), vehicle: acid diluted with saline) turn out when CCOC(=O)c1c[nH]c2oc(/C=N/N3CC(CN4CCOCC4)OC3=O)cc2c1=O (stereo not given) was run?
**A.** Its T/C is 114 % of control.

**Q.** What about the T/C (dose: 100.0 mg/kg/injection, schedule: Q01DX005 (ip), vehicle: acid diluted with saline) of the same compound?
**A.** The T/C was 118 % of control.

**Q.** And the T/C (dose: 100.0 mg/kg/injection, schedule: Q04DX002 (ip), vehicle: saline)?
**A.** The T/C was 113 % of control.

**Q.** Which results are given for NC(=O)[C@@H]1CC2CCC1C2 (stereo not given in full)?
**A.** T/C [3]: 88 % of control; T/C [4]: 93 % of control; T/C [5]: 87 % of control

**Q.** For C=CCCCCn1c2ccccc2c2c(C)c3cnccc3c(C)c21, which T/C [6] is on record?
**A.** Its T/C is 100 % of control.

**Q.** What about the T/C [7] of the same compound?
**A.** Its T/C is 115 % of control.

**Q.** What about the T/C [8] of the same compound?
**A.** Its T/C is 115 % of control.

**Q.** For C=C(NC(=O)C(=C)NC(=O)c1csc(C2=NC3c4csc(n4)C4NC(=O)c5csc(n5)C(C(C)(O)C(C)O)NC(=O)C5CSC(=N5)/C(=C/C)NC(=O)C(C(C)O)NC(=O)c5csc(n5)C3(CC2)NC(=O)C(C)NC(=O)C(=C)NC(=O)C(=C)NC(=O)C(C(C)C)NC2C=Cc3c(C(C)O)cc(nc3C2O)C(=O)OC4C)n1)C(N)=O (stereo not given), which T/C [10] is on record?
**A.** Its T/C is 150 % of control.

**Q.** With CN(CCC#N)c1ccc(/C=C(\C#N)c2cccc(C(F)(F)F)c2)cc1 as the compound, how does the T/C [3] read?
**A.** The T/C was 105 % of control.

**Q.** What about the T/C [4] of the same compound?
**A.** Its T/C is 90 % of control.

**Q.** And the T/C [5]?
**A.** The T/C was 96 % of control.

**Q.** Which T/C (dose: 60.0 mg/kg/injection, schedule: Q01DX005 (ip), vehicle: saline) does the source give for COc1ccc(OC)c(CC(C)N)c1 (stereo not given) here?
**A.** The T/C was 98 % of control.

**Q.** What about the T/C (dose: 120.0 mg/kg/injection, schedule: Q01DX005 (ip), vehicle: saline) of the same compound?
**A.** Its T/C is 93 % of control.

**Q.** With OCC1OC(n2ccc3c(NO)ncnc32)C(O)C1O (stereo not given) as the compound, how does the T/C (dose: 0.46 mg/kg/injection, schedule: Q01DX005 (ip), vehicle: Klucel (hydroxypropylcellulose) (HPC)) read?
**A.** The T/C was 112 % of control.

**Q.** Cc1nc(N(C)C)[nH]c(=O)c1N=Nc1ccc(Cl)cc1 was tested. Which T/C [3] did it give?
**A.** The T/C was 105 % of control.

**Q.** What about the T/C [4] of the same compound?
**A.** Its T/C is 114 % of control.

**Q.** And the T/C [5]?
**A.** Its T/C is 105 % of control.
